Laboratory results published in US5620676A, “Biologically active ATP analogs” (priority 1995, dated 1997).
“Also recorded” adds a separate entry of the source. Read-outs that look alike come from different tables or passages of the source.

How the values were obtained:
[1] = target: T1, P2Y receptor (turkey erythrocyte membranes) (Meleagris gallopavo, UniProt P49652); assay: Stimulation of phospholipase C (inositol phosphate formation) in turkey erythrocyte membranes; type: biochemical
T1 construct: from tissue; host or cells: washed turkey erythrocytes, ghosts prepared by hypotonic lysis
Procedure: Phospholipase C activity: Stimulation of inositol phosphate formation by compounds of the present invention was measured in turkey erythrocyte membranes as described by Harden et al., supra and Boyer et al., supra. The K0.5 values were averaged from 3-8 independently determined dose-response curves for each compound. Briefly, one ml of washed turkey erythrocytes was incubated in inositol-free medium (DMEM; Gibco) with 0.5-1 mCi of 2-[^3 H]myoinositol (20 Ci/mmol; American Radiolabeled Chemicals Inc., St. Louis, Mo.)for 18-24 h in a humidified atmosphere of 95% air 5% CO2 at 37° C. Erythrocyte ghosts were prepared by rapid lysis in hypotonic buffer (5 mM sodium phosphate, pH 7.4, 5 mM MgCl2, 1 mM EGTA) as described by Boyer et al., supra. Phospholipase C activity was measured in 25 μl of [^3 H]inositol-labeled ghosts (≈175 μg of protein, 200-500,000 cpm/assay) in a medium containing 424 μM CaC12, 0.91 mM MgSO4, 2 mM EGTA, 115 mM KCl, 5 mM KH2 PO4, and 10 mM Hepes, pH 7.0. Assay (100 μl or 200 μl final volume) contained 1 μM GTPγS and the indicated concentrations of nucleotide analogs. Ghosts were incubated at 30° C. for 5 min, and total [^3 H]inositol phosphates were quantitated after purification by anion exchange chromatography according to Harden et al. (supra) and Boyer et al. (supra).
(§1) Phospholipase C activity and muscle relaxation/contraction effects were assessed using the methods recited in Example 3. In FIGS. 10-12, which present the result of assays of phospholipase C activity in turkey erythrocyte membranes, the x-axis is marked in units of the log of the molar concentration of the putative P2Y receptor agonist tested and the y-axis is marked in units of the percentage of maximum production of [^3 H]-inositol phosphate generated. In FIG. 13, the x-axis is marked in units of the negative log of the molar concentration of applied putative P2Y receptor agonists and the y-axis is marked in units of the percentage relaxation of the 50 nM carbachol-induced contraction of guinea pig taenia coli. In FIG. 14, the x-axis is also marked in units of the negative log of the molar concentration of applied putative P2Y receptor agonists and the y-axis is marked in units of the percentage relaxation of the 1 μM noradrenalin-induced contraction of rabbit aorta endothelium. In FIGS. 15-16, the x-axis is marked in units of the negative log of the molar concentration of applied putative p^2X receptor agonists and the y-axis is marked in units of the percentage contraction relative to a standard dose of KCl (i.e., 60 mM), as assessed in guinea pig isolated urinary bladder detrussor muscle (FIG. 15) and guinea pig isolated vas deferens (FIG. 16).

[2] = target: P2Y receptor (mesenteric artery); assay: Relaxation of rabbit mesenteric artery; conditions: log molar units
[3] = system: P2Y receptor (aorta endothelium); assay: Relaxation of noradrenalin-contracted rabbit aorta; conditions: rabbit aorta; log molar units
[4] = target: T2, P2Y receptor (taenia coli) (Cavia porcellus, UniProt P59902); assay: Relaxation of carbachol-contracted guinea pig taenia coli
T2 construct: Relaxant responses mediated via P2Y receptors were examined in guinea pig taenia coli; from tissue; host or cells: guinea pig taenia coli (carbachol-contracted)
Source text: Muscular relaxation/contraction: Relaxant responses mediated via P2Y receptors were examined in guinea pig taenia coli, rabbit aorta, and rabbit mesenteric artery, as described by Hoyle et al. (Br. J. Pharmacol., 107, 367-374 (1992a)), Burnstock et al., (Br. J. Pharmacol., 90, 383-391 (1987a)), and Rubino et al., (Eur. J. Pharmacol., 212, 237-240 (1992)). Contractile responses mediated via P2X receptors were examined in the guinea pig urinary bladder and vas deferens, and rabbit saphenous artery, also using standard methods (see Hoyle et al., supra., 1992; Hoyle et al., Br. J. Pharmacol., 99, 617-621 (1990); and Burnstock et al., Br. J. Pharmacol., 90, 111-120 (1987b)).
Muscular relaxation assays were performed as recited in Example 3. […] All curves are the mean of two determinations except for 5'-ATP (n=38), 2-hexylthio-ATP (n=4), 2-(5-hexenyl)thio-ATP (n=3), and 2-(2-4-nitrophenylethyl)thio-AMP (n=5). […] The pD2 value for 2-methylthio-ATP is 8.0±0.15, as reported by Hoyle et al., in Receptor Data for Biological Experiments, (H. N. Doods and J. C. A. Van Meel, eds., 1992b) at pp. 54-61.
as §1

[5] = target: T3, P2X receptor (vas deferens) (Cavia porcellus, UniProt A0A286XVA9); assay: Contraction of guinea pig isolated vas deferens
T3 sequence (A0A286XVA9 1-399): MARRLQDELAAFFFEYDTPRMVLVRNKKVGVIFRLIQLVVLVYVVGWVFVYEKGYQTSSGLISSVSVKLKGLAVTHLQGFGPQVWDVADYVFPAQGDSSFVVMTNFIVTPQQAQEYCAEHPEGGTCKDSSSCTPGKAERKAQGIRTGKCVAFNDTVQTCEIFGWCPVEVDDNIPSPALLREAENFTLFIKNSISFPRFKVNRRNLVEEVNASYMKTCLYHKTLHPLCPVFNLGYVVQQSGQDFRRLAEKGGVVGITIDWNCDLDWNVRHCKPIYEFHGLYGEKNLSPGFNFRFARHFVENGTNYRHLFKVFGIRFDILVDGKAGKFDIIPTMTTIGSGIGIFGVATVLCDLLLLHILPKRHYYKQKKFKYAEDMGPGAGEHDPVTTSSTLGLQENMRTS

[6] = turkey erythrocyte membranes, mean ± S.E.M. for at least 2 determinations, read-out: phosphatidyl inositol metabolism (K0.5, nM) erythrocyte
[7] = turkey erythrocyte membranes, read-out: K0.5

T1 sequence (P49652 whole entry): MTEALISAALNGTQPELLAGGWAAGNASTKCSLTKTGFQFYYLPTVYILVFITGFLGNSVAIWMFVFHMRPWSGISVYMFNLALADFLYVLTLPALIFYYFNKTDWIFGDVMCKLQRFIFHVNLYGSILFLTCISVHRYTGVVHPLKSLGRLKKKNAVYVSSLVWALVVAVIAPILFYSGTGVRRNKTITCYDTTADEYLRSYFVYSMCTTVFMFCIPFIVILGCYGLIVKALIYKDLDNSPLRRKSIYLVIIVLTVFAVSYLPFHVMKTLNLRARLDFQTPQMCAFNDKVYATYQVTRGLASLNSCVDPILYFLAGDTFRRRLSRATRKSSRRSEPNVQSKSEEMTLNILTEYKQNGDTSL
T2 sequence (P59902 whole entry): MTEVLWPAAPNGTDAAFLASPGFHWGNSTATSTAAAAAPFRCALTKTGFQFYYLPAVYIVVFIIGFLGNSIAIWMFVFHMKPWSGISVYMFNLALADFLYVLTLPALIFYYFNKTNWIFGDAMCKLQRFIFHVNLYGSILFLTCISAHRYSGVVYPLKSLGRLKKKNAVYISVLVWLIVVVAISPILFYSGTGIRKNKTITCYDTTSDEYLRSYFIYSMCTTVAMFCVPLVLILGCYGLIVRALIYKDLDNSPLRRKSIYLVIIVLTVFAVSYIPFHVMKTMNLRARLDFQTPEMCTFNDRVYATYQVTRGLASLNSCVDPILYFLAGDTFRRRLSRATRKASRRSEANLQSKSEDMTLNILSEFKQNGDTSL

| EC50 [1, 6] | Compound | activity/potency in words, turkey erythrocyte ([1]; turkey erythrocyte membranes) | relaxation pD2, mes. artery [2] | relaxation pD2, aorta [3] | further results |
| --- | --- | --- | --- | --- | --- |
| 1000 nM | CCSCCSc1nc(N)c2ncn([C@@H]3O[C@H](COP(=O)(O)O)[C@@H](O)[C@H]3O)c2n1 | – | – | – | – |
| – | Cn1c(=O)c2c(ncn2C)n(CCOP(=O)(O)OP(=O)(O)OP(=O)(O)O)c1=O [1,7-dimethyl-3-(2-hydroxyethyl)xanthine triphosphate] | – | – | – | EC50 [1, 7]: 100000 nM |
| 1.53 ± 0.21 nM | Nc1ccc(CCSc2nc(N)c3ncn([C@@H]4O[C@H](COP(=O)(O)OP(=O)(O)OP(=O)(O)O)[C@@H](O)[C@H]4O)c3n2)cc1 [2-(2-p-Aminophenylethyl)-thio-ATP, 2-[2-(p-Aminophen)ethylthio]adenosine 5'-triphosphate] | at least two orders of magnitude more potent | – | – | EC50 [1, 7]: 5 to 30 nM |
| 72.8 ± 46.6 nM | NCCCCCCCSc1nc(N)c2ncn([C@@H]3O[C@H](COP(=O)(O)OP(=O)(O)OP(=O)(O)O)[C@@H](O)[C@H]3O)c2n1 [2-(7-Aminoheptyl)thio-ATP, 2-(7-Aminoheptylthio)-adenosine-5'-triphosphate] | – | – | – | – |
| 773 ± 328 nM | Nc1nc(SCCCCCCCS)nc2c1ncn2[C@@H]1O[C@H](COP(=O)(O)OP(=O)(O)OP(=O)(O)O)[C@@H](O)[C@H]1O [2-(7-Thioheptyl)thio-ATP, 2-(7-Thioheptylthio)-adenosine-5'-triphosphate] | – | – | – | – |
| 25.9 ± 10 nM | N#CSCCCCCCCSc1nc(N)c2ncn([C@@H]3O[C@H](COP(=O)(O)OP(=O)(O)OP(=O)(O)O)[C@@H](O)[C@H]3O)c2n1 [2-[(7-Thiocyanatoheptyl)thio]-ATP, 2-(7-Thiocyanatoheptylthio)-adenosine-5'-triphosphate] | at least two orders of magnitude more potent | – | – | EC50 [1, 7]: 5 to 30 nM |
| 214 ± 2 nM | CCCCCCCCCCSc1nc(N)c2ncn([C@@H]3O[C@H](COP(=O)(O)O)[C@@H](O)[C@H]3O)c2n1 [2-decylthio AMP] | – | – | – | – |
| 1000 nM | CCCCCCCSc1nc(N)c2ncn([C@@H]3O[C@H](COP(=O)(O)O)[C@@H](O)[C@H]3O)c2n1 [2-hepylthio AMP] | – | – | – | – |
| 58 ± 5 nM | CCCCCCSc1nc(N)c2ncn([C@@H]3O[C@H](COP(=O)(O)O)[C@@H](O)[C@H]3O)c2n1 [2-hexylthio AMP] | – | – | – | – |
| 295 ± 6 nM | CCCCCCCCSc1nc(N)c2ncn([C@@H]3O[C@H](COP(=O)(O)O)[C@@H](O)[C@H]3O)c2n1 [2-octylthio AMP] | – | – | – | – |
| 10000 nM | CCCCCSc1nc(N)c2ncn([C@@H]3O[C@H](COP(=O)(O)O)[C@@H](O)[C@H]3O)c2n1 [2-pentylthio AMP] | – | – | – | – |
| 1000 nM | CCCCCCCCCCCSc1nc(N)c2ncn([C@@H]3O[C@H](COP(=O)(O)O)[C@@H](O)[C@H]3O)c2n1 [2-undecylthio AMP] | – | – | – | – |
| – | Nc1ncnc2c1ncn2[C@@H]1O[C@H](CO)[C@@H](O)[C@H]1O [Adenosine, reference compound] | – | 6.0 | 5.7 | EC50 ([1]; at 10^-5 M, read-out: phosphatidyl inositol metabolism (K0.5) erythrocyte, class symbol): > 10000 nM; EC50 [4]: 126000 nM |
| 7000 nM | O=P(O)(O)OP(=O)(O)OP(=O)(O)OC[C@H]1O[C@@H](n2cnc3c(NCCc4ccccc4)ncnc32)[C@H](O)[C@@H]1O [N^6 -phenylethyl ATP, N^6 -phenylethyl-ATP] | – | – | – | – |
| – | Cn1c(=O)c2c(ncn2CCOP(=O)(O)OP(=O)(O)OP(=O)(O)O)n(C)c1=O [β-Hydroxyethyltheophylline triphosphate] | – | – | – | EC50 [1, 7]: 26900 nM |

| Compound | EC50 [1, 6] | activity/potency in words, turkey erythrocyte ([1]; turkey erythrocyte membranes) | relaxation pD2, mes. artery [2] | relaxation pD2, aorta [3] | further results |
| --- | --- | --- | --- | --- | --- |
| Nc1nc(SCCc2ccc([N+](=O)[O-])cc2)nc2c1ncn2[C@@H]1O[C@H](COP(=O)(O)O)[C@@H](O)[C@H]1O [2-(2-p-Nitrophenylethyl)-thio-AMP, 2-[2-(p-nitrophen)ethylthio]adenosine 5'-monophosphate] | 3000 ± 1200 nM | – | 5.0 | 6.1 | activity/potency in words, taenia coli ([4]; guinea pig taenia coli): slightly less potent than ATP; relaxation pD2, taenia coli ([4]; guinea pig taenia coli, log molar units): 6.5 |
| Nc1nc(SC2CCCCC2)nc2c1ncn2[C@@H]1O[C@H](COP(=O)(O)OP(=O)(O)OP(=O)(O)O)[C@@H](O)[C@H]1O [2-Cyclohexylthio-ATP, 2-cyclohexylthio-ATP] | 24 ± 4 nM | at least two orders of magnitude more potent | 5.9 | 6.3 | EC50 [1, 7]: 5 to 30 nM; EC50 [4]: 15.8 nM |
| Nc1nc(SCCc2ccccc2)nc2c1ncn2[C@@H]1O[C@H](COP(=O)(O)OP(=O)(O)OP(=O)(O)O)[C@@H](O)[C@H]1O [2-Phenylethylthio-ATP, 2-phenylethylthio-ATP] | 30 ± 17 nM | at least two orders of magnitude more potent | 6.2 | 6.5 | EC50 [1, 7]: 5 to 30 nM; EC50 [4]: 79.4 nM |
| Nc1ncnc2c1ncn2[C@@H]1O[C@H](COP(=O)(O)OP(O)(O)=S)[C@@H](O)[C@H]1O [ADP-β-S, reference compound] | 96 ± 27 nM | enhanced potency relative to the parent compound; also recorded: a very high affinity for the turkey erythrocyte P2Y receptor | 5.8 | 5.8 | times more potent than ADP, turkey erythrocyte ([1]; relative to ADP): ~400 times; times more potent than ATP, turkey erythrocyte ([1]; relative to ATP): approximately 140 times; activity/potency in words, taenia coli ([4]; guinea pig taenia coli): not in the taenia coli; also recorded: no greater affinity for the P2Y receptor in the guinea-pig taenia coli than ATP or ADP |
| Nc1ncnc2c1ncn2[C@@H]1O[C@H](COP(=O)(O)OP(=O)(O)OP(O)(O)=S)[C@@H](O)[C@H]1O [ATP-γ-S, reference compound] | 1260 ± 380 nM | enhanced potency relative to the parent compound | 5.8 | 5.7 | activity/potency in words, taenia coli ([4]; guinea pig taenia coli): not in the taenia coli |
| Nc1ncnc2c1ncn2[C@@H]1O[C@H](COP(=O)(O)OP(=O)(O)NP(=O)(O)O)[C@@H](O)[C@H]1O [AppNHp, reference compound] | 4450 ± 1150 nM | equipotent with ATP in the erythrocytes | 6.6 | 5.5 | activity/potency in words, vas deferens [5]: an effect similar to methylene replacement; activity/potency in words, taenia coli ([4]; guinea pig taenia coli): an effect similar to methylene replacement |
